Test results: US9937115B2, “Oral care compositions with improved flavor” (priority 2010, dated 2018)

Key:
[1] = molecular target: T1, TRPA1 receptor (Homo sapiens, UniProt O75762); experiment: cell-based; details: percentage of the control (allyl isothiocyanate) calcium count; material dissolved in DMSO at 100 micromolar; HEK cells with TRPA1; direct addition;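 for TRPA1 Pre-incubation: values above 100 mean more active than the control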
T1 construct: expressed in transfected cells; host or cells: HEK cell line
T1 sequence (O75762 whole entry): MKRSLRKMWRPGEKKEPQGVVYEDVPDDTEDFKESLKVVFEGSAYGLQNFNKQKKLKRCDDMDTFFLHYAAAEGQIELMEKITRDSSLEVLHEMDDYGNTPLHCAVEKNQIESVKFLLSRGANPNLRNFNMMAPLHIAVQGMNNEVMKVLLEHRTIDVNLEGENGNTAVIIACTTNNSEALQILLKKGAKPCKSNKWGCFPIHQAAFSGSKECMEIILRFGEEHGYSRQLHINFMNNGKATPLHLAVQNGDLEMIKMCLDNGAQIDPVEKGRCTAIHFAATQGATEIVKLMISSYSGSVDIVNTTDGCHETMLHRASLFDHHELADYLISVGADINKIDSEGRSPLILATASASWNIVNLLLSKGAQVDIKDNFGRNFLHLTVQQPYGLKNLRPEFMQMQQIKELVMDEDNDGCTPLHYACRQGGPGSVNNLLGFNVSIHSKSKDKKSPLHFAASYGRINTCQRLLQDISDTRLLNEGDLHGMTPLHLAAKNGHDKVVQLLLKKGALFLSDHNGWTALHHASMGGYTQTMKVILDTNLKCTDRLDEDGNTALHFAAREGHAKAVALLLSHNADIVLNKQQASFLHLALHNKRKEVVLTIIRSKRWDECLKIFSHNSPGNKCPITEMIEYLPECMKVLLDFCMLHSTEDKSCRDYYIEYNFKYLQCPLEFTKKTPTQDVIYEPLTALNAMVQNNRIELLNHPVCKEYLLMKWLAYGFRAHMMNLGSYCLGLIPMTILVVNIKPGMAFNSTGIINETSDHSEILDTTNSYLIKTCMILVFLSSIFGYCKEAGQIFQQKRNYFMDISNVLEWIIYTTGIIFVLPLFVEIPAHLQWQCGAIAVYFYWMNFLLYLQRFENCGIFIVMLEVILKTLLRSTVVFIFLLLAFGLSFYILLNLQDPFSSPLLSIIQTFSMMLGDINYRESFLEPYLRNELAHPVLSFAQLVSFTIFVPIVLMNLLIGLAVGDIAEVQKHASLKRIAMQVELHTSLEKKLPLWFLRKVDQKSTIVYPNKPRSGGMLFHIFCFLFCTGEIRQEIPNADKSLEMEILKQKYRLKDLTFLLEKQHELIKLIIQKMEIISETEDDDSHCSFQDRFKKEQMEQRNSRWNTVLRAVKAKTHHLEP
Outline: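 HEK cells expressing TRPA1 were treated with test compounds dissolved in DMSO at 100 micromolar, with allyl isothiocyanate as positive control. Agonism was read on a FLIPR as calcium-dye fluorescence counts above background. A TRPA1 activator was defined as giving at least 1000 counts above background at 1 mM.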

[2] = molecular target: T1, TRPA1 receptor; type: cell-based; details: percentage of the control (allyl isothiocyanate) calcium count, material dissolved in DMSO at 100 micromolar, HEK cells with TRPA1

Compound	TRPA1 Direct addition [1] [%]	TRPA1 Pre-incubation [2] [%]
CC/C=C\CCO [Hexen-1-ol]	0.06	80.84
CC(=O)C1(C)CC2=C(CCCC2(C)C)CC1C (centres unmarked) [ISO E Super]	11.53	−0.4
C/C=C/c1ccc(OC(=O)Cc2ccccc2)c(OC)c1 [Iso-eugenyl phenylacetate]	29.74	42.19
CC(C)C(=O)O [Isobutryic Acid]	1.15	78.64
C=C(OCC)C1C(C)(C)CC(=O)CC1(C)C [Kephalis]	−0.23	83.88
C=C[C@](C)(O)CCC=C(C)C [L-Linalool]	−11.37	65.28
CC(C)[C@@H]1CC[C@@H](C)CC1=O [L-Menthone]	4.4	70.56
O=C(O)C(O)C(O)C(=O)O [L-Tataric Acid]	−2.77	79
CC(=O)O[C@@H]1C[C@H](C)CC[C@H]1C(C)C [Laevo Menthyl Acetate]	−9.39	87.91
CCCCCCCCCCCC=O [Lauric Aldehyde]	19.05	85.96
CC(C)=CCC/C(C)=C/C=O [Lemarome]	80.13	41.41
COC(=O)CCCc1ccccc1 [Methyl 4-Phenyl butyrate]	−0.22	98.83
CC1CCC(C(C)(C)S)C(=O)C1 (centres unmarked) [P-Mentha-8-Thiol-3-one]	46.29	73.82
Cc1ccc(C=O)cc1 [P-Totylaldehyde]	11.1	60.52
CC(=O)OCCCc1ccccc1 [Phenyl Propyl Acetate]	−9.54	69.3
C=C(C)CCCC(C)CCOC(C)=O (centres unmarked) [Rhodinyl Acetate]	−17.14	66.4
CC1C2CC(CC2C2CCCC(O)C2)C1(C)C (centres unmarked) [Sandela]	25.65	94.17

Compound	TRPA1 Direct addition [1] [%]	TRPA1 Pre-incubation [2] [%]
[Cl][Sn][Cl] [Stannous Chloride]	−14.1	54.35
CCC(C)(O)CCCC(C)C (centres unmarked) [Tetrahydrolinalool]	−17.09	70.8
C=CCCCCCCCCC=O [Undecylenic Aldehyde]	−14.32	52.14
C=C(C)[C@@H]1CCC2=CCC[C@@H](C)[C@]2(C)C1 [Valencene]	0.1	94.99
[Cl-].[Cl-].[Zn+2] [Zinc Chloride]	5.46	21.61
C=C(C)C1CC=C(C)C(OC(C)=O)C1 (centres unmarked) [carvyl acetate]	−0.25	117.9
C/C=C/C(=O)C1C(C)C=CCC1(C)C (centres unmarked) [delta-damascone]	0.74	138.93
C/C=C/c1ccc(OCC)c(OC)c1 [ethyl isoeugenol]	−0.14	111.43
CCOc1cc(C2OCC(C)O2)ccc1O (centres unmarked) [ethyl vanillin propylene glycol acetal]	0	103.19
CCCC(=O)OC(C)c1ccccc1 (centres unmarked) [methyl benzyl butyrate]	−0.34	116.22
CCCC/C=C/C=C/C=O [trans,trans,-2,4-Nonadienal]	112.15	−4.24
Benzaldehyde Glyceryl Acetal	−2.74	30.62
Iso Jasmone	11.48	58.16
Jasmonyl	7.36	68.48
Phellandrene	1.65	52.15
Rhodinol 70 Spec 59508	−9.13	87.57
Roselea Spec 59514	14.53	71.26
